Data set [1] has as its system RBCs. As to the kind of experiment: Insertion efficiency: post-transformation solutions concentrated 20x, Diamed serology. Type of data set: cell-based. The note with it: post-transformation solution concentrated 20×, from 0.60 mg/mL. How it is done: In addition, the post-transformation solutions were concentrated 20× and compared in parallel with the transformation solutions of known concentration. Only the post-transformation solutions derived from the 0.08 mg/mL Atri-sp-Ad-DOPE (I) and 0.6 mg/mL Btri-sp-Ad-DOPE (VI) solutions were tested.
Post-transformation solutions (20 μL) were dialysed (pore size 500 Da) against de-ionised water for 2 days. The samples were left to dry in a fumehood for 10 days. At the end of this time they were transferred into a rotavapor flask and set on the rotavapor to rotate under vacuum with no heat overnight. Samples were dried in a water bath at 40° C. and washed over into smaller vessels with chloroform-methanol 2:1 leaving significant amounts of dried cellular material. The chloroform-methanol 2:1 washings were dried down, washed over again into test-tubes with chloroform-methanol 2:1 and dried down. These samples were redissolved in 1 mL of 1× PBS and used for transformation experiments. The cellular material in the bottom of the flasks was washed out with water into another set of tubes.
The post-transformation solutions (from Atri-sp-Ad-DOPE (I) at 0.08 mg/mL and Btri-sp-Ad-DOPE (VI) at 0.6 mg/mL, 20 μL) were added to washed, packed RBCs (60 μL). […]

The subject of data set [2] is group O red blood cells (RBCs). The data set is described as follows: Diamed gel-card agglutination of group O RBCs transformed at 37° C. with synthetic glycolipids. Further details: scale not given here. Type of data set: cell-based, human. The conditions noted are these: 0.25 mg/mL; Day 116; Cellstab. How it is done:
(§1) Washed packed group O red blood cells (RBCs) (3 parts by volume) and the synthetic glycolipid solution (1 part by volume, varying concentrations) were added to an eppendorf tube. The tube was incubated in a 37° C. waterbath for one hour, mixing every 15 minutes. […]
(§2) Tube serology and Diamed gel-card results for RBCs transformed with the different synthetic molecule constructs are provided in Table 38. Results for the stability of the RBCs transformed with the different synthetic glycolipids at different concentrations are provided in Tables 39 to 44.

The subject of data set [3] is RBCs. The data set is described as follows: Insertion efficiency: post-transformation supernatant solutions, tube serology. The format is cell-based. How it is done:
The post-transformation supernatant solutions (from Atri-sp-Ad-DOPE (I) at 0.08 mg/mL, 0.05 mg/mL and 0.03 mg/mL, and Btri-sp-Ad-DOPE (VI) at 0.6 mg/mL, 20 μL) were added neat and in a 1:2 dilution to washed, packed RBCs (60 μL). The tubes were incubated in a 37° C. waterbath for one hour, with mixing taking place every 15 minutes.
The transformed RBCs were washed 3× with PBS and then suspended in Cellstab™ at the appropriate concentration for serology testing.

The nature of data set [4]: Solubility of synthetic glycolipids in hot PBS. The format is physicochemical. The note with it: hot PBS. An excerpt:
In the context of this description the phrase “water soluble” means a stable, single phase system is formed when the synthetic molecule construct is contacted with water or saline (such as PBS) in the absence of organic solvents or detergents, and the term “solution” has a corresponding meaning.
For use in the transformation of cells the first criterion that synthetic glycolipids must satisfy is that they are soluble in aqueous solvents, e.g. phosphate buffered saline.
Initial tests on the molecules were to establish solubility and thus eliminate those molecules that were unsuitable for use in the transformation of cells.

Data set [5] concerns endometrial cells and embryos. As to the kind of experiment: Attachment of transformed endometrial cells to modified embryos. Type of data set: cell-based. The note with it: 15 minutes at 37° C. How it is done:
Modified embryos (BioG-Avidin-BioIgG^B and BioG-Avidin-BioIgM^A) were prepared in accordance with the methods described in the specification accompanying the international application no. PCT/NZ03/00059 (published as WO03/087346).
Two concave glass slides were prepared, one with two wells of synthetic glycolipid Atri-sp-Ad-DOPE (I) inserted endometrial cells and the other with two wells of synthetic glycolipid Btri-sp-Ad-DOPE (VI) inserted endometrial cells.
The embryos were surrounded with endometrial cells. The wells were covered with mineral oil and incubated for 15 minutes at 37° C. Using a wide bore handling pipette each group of embryos were carefully transferred to a fresh drop of M2 media. The embryos were gently washed. The embryos were gently transferred into 2 μL of M2 media on a marked microscope slide. Each drop was overlaid with mineral oil
Under a central plane of focus on an Olympus microscope the number of endometrial cells adhered to the embryos in each group was assessed. The number of cells adhered to each embryo was recorded.

Data set [6] concerns embryos. The data set is described as follows: Embryo modification, test for insertion by fluorescence. Type of data set: cell-based. The method, then:
The embryo zona pellucida was removed by treating embryos with 0.5% pronase in a 37° C. oven for 6 minutes or until all zonas were removed. Micro-drops were prepared by adding 5 μl of synthetic glycolipid Atri-sp-Ad-DOPE (I) or Btri-sp-Ad-DOPE (VI), at a concentration of 1 mg/mL to a 45 μl drop of M2 media overlaid with mineral oil. All embryo groups were incubated in the 50 μl micro-drops for 1 hour at 37° C. Embryos from experimental and control groups were washed 3× with M2 media.
Embryos from experimental and control groups were placed into a micro-drop of corresponding antibody and incubated for 30 min at 37° C. Embryos from experimental and control groups were washed 3× with M2 media.
Embryos from all experimental and control groups were placed into micro-drops of anti-mouse Ig FITC (1:50 dilution anti-mouse Ig FITC in M2) and incubated for 30 min at 37° C. Embryos from experimental and control groups were washed 3× with M2 media. Embryos were mounted on microscope slides in a 5 μl drop of M2 and the drops overlaid with oil.
The slides were viewed under a fluorescence microscope.

The subject of data set [7] is group O red blood cells (RBCs). The data set is described as follows: Tube serology of group O RBCs transformed at 37° C. with synthetic glycolipids. The conditions noted are these: 0.25 mg/mL, Day 44. The format is cell-based, human. The method, then: as §1, §2
For data set [8], the system named is RBCs. The data set is described as follows: Detectable transformation ability of synthetic glycolipids (agglutination). The note with it: agglutination with the appropriate antibody. Type of data set: cell-based. The source says:
The synthetic glycolipid must also be able to insert into the membrane and be recognisable to the appropriate antibody for transformation to be detected by agglutination. Initial tests on the molecules were to establish solubility and thus eliminate those molecules that were unsuitable for use in the transformation of cells.

In data set [9] the test system is RBCs. As to the kind of experiment: Evaluation of insertion of different lipid tails by agglutination with the relevant antisera. The format is cell-based. Further details: scale not given here. The note with it: second series. An excerpt:
Transformation of RBCs with synthetic glycolipids with different lipid tails was first evaluated (Tables 22 and 24).

These results are taken from US10858384B2, “Synthetic molecule constructs” (KODE BIOTECH LIMITED, priority 2004, dated 2020).

For the compound `CCCCCCCC/C=C\CCCCCCCC(=O)OC[C@H](COP(=O)(O)OCCNC(=O)CCCCC(=O)NCCCO[C@@H]1O[C@H](CO)[C@H](O)[C@H](O[C@H]2O[C@H](CO)[C@H](O)[C@H](O)[C@H]2O)[C@H]1O[C@@H]1O[C@@H](C)[C@@H](O)[C@@H](O)[C@@H]1O)OC(=O)CCCCCCC/C=C\CCCCCCCC` [Btri-sp-Ad-DOPE (VI)], the “Score (Diamed serology)” value in data set [1] was found to be 0. In addition, the “Agglutination, Diamed gel-cards, Albaclone anti-B” value in [2] was 0. Further, the “Score (tube serology)” value in data set [3] (1:2, pre-trans conc 0.60 mg/mL) is given as 0; in [3] (neat, pre-trans conc 0.60 mg/mL) it was “vw+”. In data set [4], the Water solubility entry is recorded as “Yes”. Further, the “Average number of endometrial cells attached to modified embryos” value worked out at 6.7 in data set [5] (embryos modified with BioG-Avidin-BioIgG^B) and 3.4 in data set [5] (embryos modified with BioG-Avidin-BioIgM^A). In addition, the “Transformation of embryos visualised by fluorescence” value in data set [6] (1 mg/mL stock in micro-drop, 1 hour 37° C.) is listed as “negative result”. The “Fluorescence score after incubation with IgFITC Probe” value in data set [6] (embryos, inserted antigen 1 mg/mL, 1 hour at 37° C., 1° antibody Anti-B Bioclone, anti-mouse Ig FITC 1:50) is 0. Further, the “Agglutination, manual tube serology, Bioclone anti-B” value in data set [7] (Alsevers) was “w+”; in data set [7] (Cellstab) it was “^‡”. Moreover, the Detectable transformation ability entry in data set [8] is “Yes”. Further, the Agglutination score was 0 in data set [9] (60 μg/mL, Alba anti-B); 0 in data set [9] (60 μg/mL, Bio anti-B); 0 in data set [9] (125 μg/mL, Alba anti-B); 0 in data set [9] (125 μg/mL, Bio anti-B).
